Data published in patent US9963674B2, “Age-modified cells and methods for making age-modified cells” (Memorial Sloan-Kettering Cancer Center, priority 2013, dated 2018).

How the values were obtained:
iPSC-derived mDA neurons [1] = assay: mDA neuron marker expression (NURR1, TH) as sign of acute toxicity; format: cell-based, human
Description: (§1) Cells were fixed in 4% paraformaldehyde for 15 minutes. Blocking was performed in phosphate-buffered saline supplemented with 1% BSA, and 0.3% Triton X-100 for 30 minutes to 1 hour. Cells were stained overnight at 4° C. with primary antibodies diluted in blocking buffer. Following several washes, cells were stained with appropriate Alexa Fluor-labeled secondary antibodies (Molecular Probes, Carlsbad, Calif.) at 1:500 in blocking buffer for 30 minutes to 3 hours at room temperature. Cells were counterstained with 4′,6-diamidino-2-phenylindole (DAPI; Thermo Fisher, Rockford, Ill.) to visualize nuclei. Images were acquired with an Olympus IX81 microscope using a Hamamatsu ORCA CCD camera.
Cells were collected with a cell lifter (Corning, Tewksbury, Mass.) in ice-cold phosphate-buffered saline without calcium or magnesium (PBS−/−). Cell pellets were rapidly frozen on ethanol and dry ice and stored at −80° C. Cell pellets were thawed on ice and resuspended in 50-200 μl RIPA lysis buffer (50 mM Tris-HCl pH 8.0, 120 mM NaCl, 6 mM EDTA, 0.5% NP-40) with 1% sodium dodecyl sulfate (SDS). Cell suspensions were vortexed at 15-minute intervals during a 45-minute incubation on ice. Lysates were isolated following a 10,000 rpm spin for 10 minutes at 4° C. 20-40 μg samples were further diluted with 4× Laemmli sample buffer, boiled for 5 minutes at 95° C., and loaded onto a NuPAGE 4-12% Bis-Tris precast gel (Life Technologies). Gel electrophoresis was performed at 100 V for 2 hours. Gels were transferred to a methanol activated PVDF membrane using the XCell II Blot Module (Life Technologies) according to the manufacturer's instructions. Blots were blocked in 3% bovine serum albumin (BSA) in Tris buffered saline plus 0.1% Tween-20 (TBS-T) for 45 minutes at room temperature. […]
Following several washes with TBS-T, blots were incubated in appropriate HRP-labeled secondary antibodies (Jackson ImmunoResearch, West Grove, Pa.) for 1 hour at room temperature. […] Densitometry quantification was performed using ImageJ on blots from three independent experiments.

iPSC-derived mDA neurons [2] = assay: Progerin modified-RNA overexpression in iPSC-derived mDA neurons, age-associated markers; format: cell-based, human
Description: The following is a protocol for progerin overexpression using modified-RNA in differentiating or differentiated iPSC-derived cells: • 1. Prepare progerin-modified-RNA (methods of synthesis are described in Example 9) and deliver to iPSC-derived somatic cells using Lipofectamine RNAiMAX (Life Technologies) and incubate • a. For iPSC-derived fibroblasts repeat transfection for 3 consecutive days. • i. Note: Amount/duration combination optimizes treatment for minimal toxicity and earliest significant effects. • b. For iPSC-derived dopamine neurons repeat transfection for 5 consecutive days. • i. Note: Amount/duration combination optimizes treatment for minimal toxicity and earliest significant effects. • c. For other iPSC-derived somatic cells perform pilot experiments to determine amount and duration of progerin modified-RNA. • d. Analyze maturation and/or age-associated phenotypes. • Alternatively, expression of progerin can also be achieved through the use of temperature-sensitive Sendai virus expressing progerin. Additionally, expression of progerin can be achieved by using lentivirus.
For overexpression experiments, modified-RNA was thawed on ice and adjusted to a working concentration of 100 ng/μl. Per 100,000-cell transfection, 200 ng of modified-RNA was diluted up to 10 μl in Opti-MEM medium (Life Technologies), vortexed, and incubated at room temperature for 10 minutes. In a separate tube, 0.6 μl Lipofectamine RNAiMAX® (Life Technologies) was diluted up to 10 μl in Opti-MEM and incubated for the same timeframe. The Lipofectamine mixture was then transferred to the tube containing the modified-RNA mixture, vortexed and incubated for an additional 10 minutes. The transfection mixture was added dropwise to cells that had been pre-treated with 200 ng/ml of the interferon inhibitor B18R (eBioscience, San Diego, Calif.) for at least 4 hours prior to transfection.
After 4 hours at 37° C., the entire suspension was replaced with fresh medium supplemented with B18R. Transfection of iPSC-derived fibroblasts was performed starting on day 50 of differentiation and repeated on 2 consecutive days thereafter. iPSC-derived mDA neurons were transfected starting on day 65 or day 120 of differentiation and repeated on 4 consecutive days thereafter. The additional 2 days of transfections were done in order to establish a phenotype in iPSC-derived mDA neurons. Cells were analyzed one day after the final transfection.
as §1
Passage-matched cells were scored from three independent experiments. Where necessary due to bias against progerin-positive cells, images were processed using ImageJ software (version 1.43u, NIH). In these cases, 50 cells per condition were assessed for each independent experiment. Data are presented as mean±standard error of means (SEM). […]

[3] = modified-RNA 5 days, GFP-positive mDA neurons

## GFP-progerin: progerin (truncated lamin A) fused to GFP, SEQ ID No. 2, overexpressed via modified-RNA or hSyn lentivirus
iPSC-derived mDA neurons [1]; PD- and control-iPSC-derived mDA neurons, day 65, 5 days
  mDA neuron markers NURR1 and TH: unchanged
iPSC-derived mDA neurons [1]; young and old donor iPSC-derived mDA neurons
  percentages of iPSC-derived neurons expressing NURR1 and TH: remained unchanged
iPSC-derived mDA neurons [2]; modified-RNA 3 days, iPSC-derived mDA neurons
  phenotype after acute 3-day overexpression: no obvious phenotype
iPSC-derived mDA neurons [2]; [3]
  DNA damage (γH2AX foci): increased accumulation of DNA damage
  nuclear folding and blebbing: enhanced nuclear folding and blebbing
iPSC-derived mDA neurons [2]; modified-RNA 5 days, iPSC-mDA neurons, GFP-progerin vs nuclear-GFP
  LAP2α, H3K9me3 and HP1γ immunocytochemistry: no difference
iPSC-derived mDA neurons [2]; modified-RNA 5 days, mDA neurons
  mitochondrial superoxide: signs of mitochondrial dysfunction
